Where a name gives a salt, the structure may show the parent alone. Read-outs that look alike come from different tables or passages of the source.
Experiments:
[1] = biological target: T1, SARS-CoV-2 PLpro (nsp3 1564–1878) (Severe acute respiratory syndrome coronavirus 2, UniProt P0DTD1); test: biochemical; parameters: FRET-quenched peptide (Pro3) cleavage by PLpro, 10 min pre-incubation, slope over 20 min, normalised to no-compound control; settings: high concentration screen, read-out: % of control remaining
[2] = biological target: T1, SARS-CoV-2 PLpro (nsp3 1564–1878); test: biochemical; parameters: FRET-quenched peptide (Pro3) cleavage by PLpro, 10 min pre-incubation, slope over 20 min, normalised to no-compound control; settings: low concentration screen, read-out: % of control remaining

CCCCC[C@@H](/C=C/C=C\CCCCCCCC(=O)O)OO [13(S)-HPODE]
remaining activity at 3.75 µM ([1]; Well no.=4388): 101%
remaining activity at 1.25 µM ([2]; Well no.=4388): 102%

CCCCC/C=C\C/C=C\CCCCCCCCCCCC(=O)O [13(Z),16(Z)-Docosadienoic acid]
remaining activity at 3.75 µM ([1]; Well no.=4462): 101%
remaining activity at 1.25 µM ([2]; Well no.=4462): 100%

CCCCC[C@H](O)CC[C@H]1[C@H](O)CC(=O)[C@@H]1CCCCCCC(=O)O [13,14-Dihydro-prostaglandin E1]
remaining activity at 3.75 µM ([1]; Well no.=4278): 101%
remaining activity at 1.25 µM ([2]; Well no.=4278): 102%

CC1=C(/C=C/C(C)=C/C=C/C(C)=C\C(=O)O)C(C)(C)CCC1 [13-cis Retinoic acid]
remaining activity at 3.75 µM ([1]; Well no.=3134): 98.9%
remaining activity at 3.75 µM ([1]; Well no.=4430): 96%
remaining activity at 1.25 µM ([2]; Well no.=3134): 98.4%
remaining activity at 1.25 µM ([2]; Well no.=4430): 95.1%

CC1=C(/C=C/C(C)=C/C=C/C(C)=C\C(=O)O)C(C)(C)CCC1 [13-cis-retinoic acid]
remaining activity at 3.75 µM ([1]; Well no.=1348): 101%
remaining activity at 1.25 µM ([2]; Well no.=1348): 95.9%

CCCCCCCC/C=C/CCCCCCCCCCCCC(=O)O [14(E)-Tricosenoic acid]
remaining activity at 3.75 µM ([1]; Well no.=4500): 94.8%
remaining activity at 1.25 µM ([2]; Well no.=4500): 95.4%

CCCCCCCC/C=C\CCCCCCCCCCCCC(=O)O [14(Z)-Tricosenoic acid]
remaining activity at 3.75 µM ([1]; Well no.=4498): 93.7%
remaining activity at 1.25 µM ([2]; Well no.=4498): 99.3%

CCCCCC#CC[C@@H](O)/C=C/C=C/C=C\[C@@H](O)CCCC(=O)O [14,15-Dehydroleukotriene B4]
remaining activity at 3.75 µM ([1]; Well no.=4518): 94.4%
remaining activity at 1.25 µM ([2]; Well no.=4518): 97.4%

CCCCC[C@H](O)/C=C/C=C\C/C=C\C/C=C\CCCC(=O)O [15(S)-HETE]
remaining activity at 3.75 µM ([1]; Well no.=4289): 97.2%
remaining activity at 1.25 µM ([2]; Well no.=4289): 102%

CCCCC[C@H](O)/C=C/C=C\C/C=C\CCCCCCC(=O)O [15(S)-HETrE]
remaining activity at 3.75 µM ([1]; Well no.=4229): 106%
remaining activity at 1.25 µM ([2]; Well no.=4229): 99.3%

CCCCC[C@@H](/C=C/C=C\CCCCCCCCCC(=O)O)OO [15(S)-HPEDE]
remaining activity at 3.75 µM ([1]; Well no.=4333): 105%
remaining activity at 1.25 µM ([2]; Well no.=4333): 108%

CC/C=C\C[C@@H](/C=C/C=C\C/C=C\C/C=C\CCCC(=O)O)OO [15(S)-HPEPE]
remaining activity at 3.75 µM ([1]; Well no.=4335): 102%
remaining activity at 1.25 µM ([2]; Well no.=4335): 103%

CCCCC[C@@H](/C=C/C=C\C/C=C\C/C=C\CCCC(=O)O)OO [15(S)-HPETE]
remaining activity at 3.75 µM ([1]; Well no.=4331): 98.7%
remaining activity at 1.25 µM ([2]; Well no.=4331): 99.3%

CCCCCCCC/C=C\CCCCCCCCCCCCCC(=O)O [15(Z)-Tetracosenoic acid]
remaining activity at 3.75 µM ([1]; Well no.=4504): 98.5%
remaining activity at 1.25 µM ([2]; Well no.=4504): 93.9%

CCCCCC(=O)/C=C/[C@H]1[C@H](O)CC(=O)[C@@H]1C/C=C\CCCC(=O)O [15-keto-prostaglandin E2]
remaining activity at 3.75 µM ([1]; Well no.=4485): 96.6%
remaining activity at 1.25 µM ([2]; Well no.=4485): 89%

CCCCCC(=O)/C=C/[C@@H]1[C@@H](C/C=C\CCCC(=O)O)[C@@H](O)C[C@H]1O [15-keto-prostaglandin F2a]
remaining activity at 3.75 µM ([1]; Well no.=4571): 88.5%
remaining activity at 1.25 µM ([2]; Well no.=4571): 90.1%

CCCCC(C)(C)[C@H](O)/C=C/[C@H]1[C@H](O)CC(=O)[C@@H]1C/C=C\CCCC(=O)O [16,16-Dimethyl-prostaglandin E2]
remaining activity at 3.75 µM ([1]; Well no.=4517): 99.3%
remaining activity at 1.25 µM ([2]; Well no.=4517): 96.1%

C[C@@]12CCc3occc3[C@H]1CC[C@]13CC(=O)[C@H](CC[C@H]12)C3 [16-Oxocafestol]
remaining activity at 3.75 µM ([1]; Well no.=3669): 91.5%
remaining activity at 1.25 µM ([2]; Well no.=3669): 92.6%

C[C@@]12C=Cc3occc3[C@H]1CC[C@]13CC(=O)[C@H](CC[C@H]12)C3 [16-Oxokahweol]
remaining activity at 3.75 µM ([1]; Well no.=3693): 99%
remaining activity at 1.25 µM ([2]; Well no.=3693): 94.8%

C#CCCCCCCCCCCCCCCCC(=O)O [17-Octadecynoic acid]
remaining activity at 3.75 µM ([1]; Well no.=4351): 104%
remaining activity at 1.25 µM ([2]; Well no.=4351): 105%

C[C@@H](O)CCC[C@H](O)/C=C/[C@H]1[C@H](O)CC(=O)[C@@H]1C/C=C\CCCC(=O)O [19(R)-Hydroxy-prostaglandin E2]
remaining activity at 3.75 µM ([1]; Well no.=4533): 88.8%
remaining activity at 1.25 µM ([2]; Well no.=4533): 91.3%

O=C(O)CCCC/C=C\C[C@@H](O)/C=C/C=C/C=C\[C@@H](O)CCCC(=O)O [20-Carboxy-leukotriene B4]
remaining activity at 3.75 µM ([1]; Well no.=4427): 98.4%
remaining activity at 1.25 µM ([2]; Well no.=4427): 94.3%

O=C(O)CCC[C@H](O)\C=C/C=C/C=C/[C@H](O)C/C=C\CCCCCO [20-Hydroxy-leukotriene B4]
remaining activity at 3.75 µM ([1]; Well no.=4425): 103%
remaining activity at 1.25 µM ([2]; Well no.=4425): 101%

C=C1CC[C@H](O)C/C1=C\C=C1/CCC[C@]2(C)[C@@H]([C@H](C)CC[C@@H](O)C(C)(C)O)CC[C@@H]12 [24(R),25-Dihydroxyvitamin D3]
remaining activity at 3.75 µM ([1]; Well no.=4424): 88.6%
remaining activity at 1.25 µM ([2]; Well no.=4424): 95.3%

C[C@H](CCCC(C)(C)O)[C@H]1CC[C@H]2[C@@H]3CC=C4C[C@@H](O)CC[C@]4(C)[C@H]3CC[C@]12C [25-Hydroxycholesterol]
remaining activity at 3.75 µM ([1]; Well no.=6353): 101%
remaining activity at 1.25 µM ([2]; Well no.=6353): 101%

CO[C@H]1C[C@@H]2CC[C@@H](C)[C@@](O)(O2)C(=O)C(=O)N2CCCC[C@H]2C(=O)O[C@H]([C@H](C)C[C@@H]2CC[C@H](n3ncnn3)[C@H](OC)C2)CC(=O)[C@H](C)/C=C(\C)[C@@H](O)[C@@H](OC)C(=O)[C@H](C)C[C@H](C)/C=C/C=C/C=C/1C [42-(2-Tetrazolyl)rapamycin]
remaining activity at 3.75 µM ([1]; Well no.=7592): 91.6%
remaining activity at 1.25 µM ([2]; Well no.=7592): 91%

CC(N)=NCc1cccc(CN)c1 [1400W dihydrochloride]
remaining activity at 3.75 µM ([1]; Well no.=1434): 90.8%
remaining activity at 1.25 µM ([2]; Well no.=1434): 88%

Nc1ccn([C@H]2CC[C@@H](CO)O2)c(=O)n1 ["2',3' - Dideoxycytidine"]
remaining activity at 3.75 µM ([1]; Well no.=1980): 102%
remaining activity at 1.25 µM ([2]; Well no.=1980): 103%

COc1cc(/C=C/C(=O)CC(=O)/C=C/c2ccc(O)cc2)ccc1O [(1E,6E)-1-(4-hydroxy-3-methoxyphenyl)-7-(4-hydroxyphenyl)-1,6-heptadiene-3,5-dione]
remaining activity at 3.75 µM ([1]; Well no.=5795): 95.2%
remaining activity at 1.25 µM ([2]; Well no.=5795): 90.1%

O=C(Nc1cc(Cl)cc(Cl)c1)[C@H]1CCCC[C@H]1C(=O)O [(1R,2S)-VU0155041]
remaining activity at 3.75 µM ([1]; Well no.=8475): 103%
remaining activity at 1.25 µM ([2]; Well no.=8475): 99%

CCCCCCCCCCCCCCCCCCc1ccc(C(=O)/C=C/C(=O)O)cc1 [(2E)-4-(4-octadecylphenyl)-4-oxo-2-butenoic acid]
remaining activity at 3.75 µM ([1]; Well no.=5554): 99.3%
remaining activity at 1.25 µM ([2]; Well no.=5554): 97.9%

O=C(/C=C/c1cccnc1)NCCCCC1CCN(C(=O)c2ccccc2)CC1 [(2E)-N-[4-(1-benzoyl-4-piperidinyl)butyl]-3-(3-pyridinyl)-2-propenamide hydrochloride hydrate]
remaining activity at 3.75 µM ([1]; Well no.=5694): 92.8%
remaining activity at 1.25 µM ([2]; Well no.=5694): 97.8%

CCOc1cc2ncc(C#N)c(Nc3ccc(F)c(Cl)c3)c2cc1NC(=O)/C=C/CN(C)C [(2E)-N-[4-(3-chloro-4-fluoroanilino)-3-cyano-7-ethoxy-6-quinolinyl]-4-(dimethylamino)-2-butenamide]
remaining activity at 3.75 µM ([1]; Well no.=5707): 102%
remaining activity at 1.25 µM ([2]; Well no.=5707): 101%

Reference: PMC8286840, “Identifying SARS-CoV-2 antiviral compounds by screening for small molecule inhibitors of Nsp3 papain-like protease” (Biochemical Journal, 2021)
